Assay results taken from PMC10518717, “High-Throughput Screening and Proteomic Characterization of Compounds Targeting Myeloid-Derived Suppressor Cells” (Molecular & Cellular Proteomics : MCP, 2023).

Test system: NUP-MDSC
Assay: Global proteome expression profiling of compound-treated NUP-MDSC (TMT LC-MS/MS)
Type: cell-based, mouse
Conditions: for log2 FC cmpd2/cmpd3: cmpd2 versus cmpd3, NUP-MDSC; for normalized reporter intensities R1: replicate R1, compound-treated NUP-MDSC; for normalized reporter intensities R3: replicate R3, compound-treated NUP-MDSC
Protocol: After treatments, medium was removed, cells were washed twice with PBS, and the cell pellets were further subjected to proteomic sample preparation.
The cell pellet was reconstituted in 2% SDS in 50 mM Tris–HCl pH 7.5 and lysed by heating to 95 °C for 10 min. One microliter of 100% TFA was added to each sample to hydrolyze DNA, and the pH was subsequently adjusted to 8.5 with 3 M Tris solution. Disulfide bonds were reduced with 10 mM DTT for 45 min at 37 °C, followed by alkylation of cysteines with 55 mM CAA for 30 min at room temperature. Prior to tryptic digestion, the detergent was removed from lysates by SP3 cleanup on an Agilent BRAVO system (Agilent Technologies), following the protocol first described by Hughes et al. ([34]). Briefly, lysate containing 200 μg of protein was mixed with SP3 beads, and proteins were precipitated onto a 50:50 mixture of Sera-Mag Speed Bead types A and B (Thermo Fisher Scientific) in 58% acetonitrile. Beads were washed three times with 80% ethanol in water and once with acetonitrile. Tryptic digest was performed in 100 μl of digestion buffer (2 mM CaCl2 in 25 mM Hepes, pH 8.5) with a 1:50 enzyme-to-protein ratio. Bead-precipitated proteins were digested at 37 °C overnight. On the next day, the supernatant of each sample was transferred to a new well and vacuum dried.
Dried peptides were reconstituted in water and labeled with the respective TMT10plex-labeling reagent as described previously ([35]) with a protein to tandem mass tag (TMT) reagent ratio of 1:2. Labeled samples were pooled, vacuum dried, and reconstituted in 0.1% formic acid (FA) prior to desalting on SepPAC50 columns (waters corp.). Peptides were fractionated using a Dionex Ultra 3000 HPLC system with a Waters XBridge BEH130 C18 3.5 um 2.1 × 250 mm column as described previously ([36]). Ninety-six fractions were collected and pooled to 48. For the full proteome analysis, one fifth of each fraction was transferred to a new 96-well plate and both plates were vacuum dried. For the phosphopeptide analysis, dried peptides were reconstituted in 55 μl 0.1% TFA in 30% ACN, pooled from 48 to 12 fractions, and mixed with 70 μl priming buffer (0.1% TFA, 100% ACN). Phosphopeptides were enriched from each of the 12 fractions using Fe(III)-IMAC-NTA cartridges on the AssayMAP BRAVO (Agilent Technologies) platform as described previously ([36]). Phosphopeptides were eluted with 60 μl 1% ammonia, vacuum dried, and stored at −20 °C prior to LC-MS/MS analysis.
The Fusion Lumos was operated in data-dependent acquisition and positive ionization mode. Samples were measured employing a MS3 method. In brief, full scan MS1 spectra were recorded in the orbitrap (OT) from 360 to 1560 m/z at 60,000 resolution using an automatic gain control (AGC) target value of 4e5 charges and a maximum injection time (maxIT) of 50 ms. Iontrap-MS2 spectra for peptide identification were acquired using higher energy collision dissociation (HCD) fragmentation with 32% normalized collision energy (NCE), an isolation window of 0.6 m/z, and an AGC target value of 1.2e4 charges. To obtain quantitative information on TMT reporter ions, each peptide precursor was fragmented again as for MS2 analysis followed by synchronous selection of the up to eight most intense peptide fragments in the iontrap ([37]) and further fragmentation via HCD using a NCE of 55%. The MS3 scan was recorded in the OT at 50,000 resolution (scan range 100–1000 m/z, isolation window of 1.2 m/z, AGC of 1e5 charges, maxIT of 86 ms). The cycle time was 1.2 s, and the dynamic exclusion lasted for 50 s.
Peptide, protein, and phosphorylation site identification and quantification were performed with MaxQuant software (v. 1.6.3.3, https://www.maxquant.org/) with standard settings for reporter ion MS3 unless described otherwise ([39]). Isotope impurities of the TMT lot were specified to allow MaxQuant the automated correction of TMT intensities. […]

[1] = protein 0610011F06Rik / Mettl26 (Q9DCS2)
[2] = protein 0610037L13Rik / Czib (Q8BHG2)
[3] = protein Trappc2 (Q8R3W2;Q9CQP2)

| SMILES | expression of proteins associated with detoxification by peroxiredoxin and further ROS-reducing proteins (Prdx1, Txnrd1, Srxn1, Cat, Nqo1, Blvrb) (3xEC50, 72 h, relative to compound 3 at 10 μM) | log2 FC cmpd2/cmpd3 [1] | normalized reporter intensities R1 [1] | normalized reporter intensities R3 [1] | log2 FC cmpd2/cmpd3 [2] | normalized reporter intensities R1 [2] | normalized reporter intensities R3 [2] | log2 FC cmpd2/cmpd3 (protein Bap18 (D3Z687;Q9DCT6)) | normalized reporter intensities R1 (protein Bap18 (D3Z687;Q9DCT6)) | normalized reporter intensities R3 (protein Bap18 (D3Z687;Q9DCT6)) | log2 FC cmpd2/cmpd3 [3] | normalized reporter intensities R1 [3] | normalized reporter intensities R3 [3] |
| --- | --- | --- | --- | --- | --- | --- | --- | --- | --- | --- | --- | --- | --- |
| CCOC(=O)c1nnn(-c2nn3nnnc3c3ccccc23)c1C [compound 2] | upregulated | -0.03832 | 20.3044 | 20.1769 | -0.06333 | 20.0663 | 19.9557 | -0.2777 | 16.8475 | 16.9614 | -0.004852 | 18.4905 | 18.3959 |
| c1ccc2c(c1)c(-n1ccnc1)nn1nnnc21 [compound 3] |  |  | 20.3551 | 20.1713 |  | 20.1036 | 20.057 |  | 17.1673 | 17.2868 |  | 18.5332 | 18.3626 |
